Measurements published in patent US20200246298A1, “Composition for Preventing or Treating Asthma Comprising Fatty Acid as Active Ingredient” (Dongshin University Industry-Academy Cooperation, priority 2019, published 2020).

How the values were obtained:
Type in all cases: in vivo, BALB/c mice
IL-5 = assay: ELISA analysis in lung tissue, OVA-induced asthma; settings: palmitic acid 5, 25, 50 mg/kg oral, particularly the 5 mg/kg group, FIG. 23
Procedure: (§1) In test groups, the animals determined to be healthy during the acclimation period were ranked by measuring the weight, and were randomly grouped so that the average weight of each group was uniform. The animals were divided into a total of 9 groups: a control group; a control group with OVA-induced asthma; a positive control group; groups administered with each of 50 mg/kg, 125 mg/kg and 250 mg/kg of oleic acid; and groups administered with each of 5 mg/kg, 25 mg/kg and 50 mg/kg of palmitic acid. The animals were sensitized via intraperitoneal injection of OVA once a week for 2 weeks after the acclimation period. During 5 days of week 3, dexamethasone (DEX) and the test substances oleic acid and palmitic acid were orally administered in the morning and 5% OVA solution was inhaled in the afternoon. The test substance was orally administered in an amount of 28 μL per weight (g) of the experimental animal, and OVA for sensitization was administered in a constant amount regardless of the weight. After 5 days of administration, autopsy was performed the next day. To analyze the levels of IFN-γ, IL-12p40, IL-4, IL-5, IL-6, and TNF-α in lung tissue, OptEIA mouse ELISAs were purchased from BD Biosciences. The IL-13 levels were assessed using the AbFrontier Cymax mouse FT ISA kit (AbFrontier, Seoul, Korea). All assays were performed according to the manufacturers' guidelines. All lung samples were prepared by a lysis buffer made with a protease inhibitor cocktail and an RIPA buffer (Thermo Fisher Scientific). Aliquots of lung tissue from all groups were weighed and homogenized with lysis buffer. They were then centrifuged at 8,200 rpm for 15 minutes, and the supernatants were harvested and measured using a microplate reader (EZ Read 400, Biochrom, Cambourne, UK).

IL-6 [1] = assay: ELISA analysis in lung tissue, OVA-induced asthma; settings: palmitic acid 5, 25, 50 mg/kg oral, particularly the 50 mg/kg group
Procedure: as §1

IL-12p40 = assay: ELISA analysis in lung tissue, OVA-induced asthma; settings: palmitic acid 5, 25, 50 mg/kg oral, particularly the 25 mg/kg group, FIG. 21
Procedure: as §1

IL-13 [2] = assay: ELISA analysis in lung tissue, OVA-induced asthma; settings: palmitic acid 5, 25, 50 mg/kg oral, particularly the 50 mg/kg group, FIG. 24
Procedure: as §1

IL-4 = assay: ELISA analysis in lung tissue, OVA-induced asthma; settings: palmitic acid 5, 25, 50 mg/kg oral, particularly the 50 mg/kg group, FIG. 22
Procedure: as §1

TNF-α [3] = assay: ELISA analysis in lung tissue, OVA-induced asthma; settings: palmitic acid 5, 25, 50 mg/kg oral, particularly the 50 mg/kg group, FIG. 25
Procedure: as §1

IFN-γ = assay: ELISA analysis in lung tissue, OVA-induced asthma; settings: palmitic acid 5, 25, 50 mg/kg oral, vs OVA, FIG. 20
Procedure: as §1

IL-6 [4] = assay: RT-PCR analysis of lung, OVA-induced asthma; settings: palmitic acid 5, 25, 50 mg/kg oral, FIG. 27
Procedure: (§2) In test groups, the animals determined to be healthy during the acclimation period were ranked by measuring the weight, and were randomly grouped so that the average weight of each group was uniform. The animals were divided into a total of 9 groups: a control group; a control group with OVA-induced asthma; a positive control group; groups administered with each of 50 mg/kg, 125 mg/kg and 250 mg/kg of oleic acid; and groups administered with each of 5 mg/kg, 25 mg/kg and 50 mg/kg of palmitic acid. The animals were sensitized via intraperitoneal injection of OVA once a week for 2 weeks after the acclimation period. During 5 days of week 3, dexamethasone (DEX) and the test substances oleic acid and palmitic acid were orally administered in the morning and 5% OVA solution was inhaled in the afternoon. The test substance was orally administered in an amount of 28 μL per weight (g) of the experimental animal, and OVA for sensitization was administered in a constant amount regardless of the weight. After 5 days of administration, autopsy was performed the next day.
(§3) In order to evaluate changes in the cDNA levels of IFN-γ, IL-12p40, IL-4, IL-5, IL-13, TNF-α, and IL-6, which are related to asthma induction, RT-PCR analysis was performed as in a previous study protocol (Lee et al., 2017). Total RNA was extracted from the lung using the RNeasy Mini Kit (Qiagen, Hilden, Germany) according to the manufacturer's instructions. Total RNA (100 ng) was used as a template for the reaction.
(§4) The RT-PCR cycles consisted of denaturation at 95° C. for 5 sec and annealing/extension at 65° C. for 30 sec for 40 cycles. The results were obtained using an Axioscope A1 (Carl Zeiss, Gottingen, Germany).

IL-13 [5] = assay: RT-PCR analysis of lung, OVA-induced asthma; settings: palmitic acid 5, 25, 50 mg/kg oral, FIG. 27
Procedure: as §2, §3, §4

TNF-α [6] = assay: RT-PCR analysis of lung, OVA-induced asthma; settings: palmitic acid 5, 25, 50 mg/kg oral, FIG. 27
Procedure: as §2, §3, §4

CCCCCCCCCCCCCCCC(=O)O [palmitic acid]
expression level of IL-5 (IL-5): decreased
expression level of IL-6 (IL-6 [1]): decreased
expression level of IL-12p40 (IL-12p40): decreased
expression level of IL-13 (IL-13 [2]): decreased
expression level of IL-4 (IL-4): decreased
expression level of TNF-α (TNF-α [3]): decreased
expression level of IFN-γ (IFN-γ): dose-dependently decreased
Th17-related cytokine IL-6 (cDNA level, RT-PCR) (IL-6 [4]): dose-dependently decreased
Th2-related cytokine IL-13 (cDNA level, RT-PCR) (IL-13 [5]): dose-dependently decreased
Th17-related cytokine TNF-α (cDNA level, RT-PCR) (TNF-α [6]): dose-dependently decreased
